{"source": "paper PMC9688808", "about": "“Discovery of Novel Lin28 Inhibitors to Suppress Cancer Cell Stemness” (Cancers, 2022)", "key": {"[1]": {"system": "DUNE cells", "test": "Real-time qPCR of Let-7d, SOX2, HMGA2 in DUNE cells", "format": "cell-based", "conditions": "20 uM, 48 h", "method": "(§1) The DUNE cell line and DUNE cells with Lin28B knockout by CRISPR (DUNE (KO)) were reported in our previous studies. IGROV1 cells were obtained from Sigma-Aldrich (St. Louis, MO, USA). DUNE and DUNE (KO) cells were cultured in Dulbecco’s Modified Eagle Medium with high Glucose/L-glutamine (DMEM; Hyclone, Logan, UT, USA) and 10% of fetal bovine serum (FBS; Gibico, Waltham, MA, USA). IGROV1 cells were cultured in Roswell Park Memorial Institute 1640 (RPMI-1640; Hyclone) medium with 10% FBS. All the cell lines were incubated in 5% CO2 at 37 °C and were tested for mycoplasma contamination monthly and cell line authentication was tested by short tandem repeat profiling by ATCC.\n(§2) There are several standard molecular techniques, including real-time qPCR, flow cytometry, cell proliferation, colony formation, and immunoblotting assays, that have been reported previously by our lab.\nFigure 4 Lin28 inhibitors restore Let-7d expression and suppress SOX2 and HMGA2 genes. DUNE (top) and DUNE (KO) (bottom) cells were treated with 20 uM of the indicated compounds for 48 h. Real-time qPCR measured RNA levels of Let-7d, SOX2, and HMGA2. Three biological replicates were performed and all results are presented as mean +/− SD. p-value ≤ 0.05—(*); ≤0.01—(**); ≤0.001—(***)."}, "[2]": {"system": "IGROV1 cells", "test": "Real-time qPCR of Let-7d, SOX2, HMGA2 in IGROV1 cells", "format": "cell-based", "conditions": "IGROV1 cells (Lin28A-positive), 20 uM, 48 h", "method": "as §1, §2\nFigure 5 Lin28 inhibitors block the Lin28A isoform. (A) EMSA used 10 nM of IR800DyeCWN-labeled Let-7 probe (lane 1), 0.5 uM Lin28A ZKD protein with 10 nM of labeled Let-7 probe (lane 2), or Lin28A ZKD, labeled Let-7 probe and 100× non-labeled competitor probe (lane 3). EMSA used Lin28A ZKD, labeled Let-7 probe, and 100–1200 uM of indicated compounds (lanes 4–10). (B) FP assays were performed by using 10 uM of Lin28A ZKD, 1 nM of FAM-labeled Let-7 probe, and 1 nM–200 uM of compounds. (C) Lin28A-positive IGROV1 cells were treated with 20 uM of the indicated compound for 48 h. Real-time qPCR measured RNA levels of Let-7d, SOX2, and HMGA2. Three biological replicates were performed and all results are presented as mean +/− SD. p-value ≤ 0.05—(*); ≤0.01—(**); ≤0.001—(***)."}, "[3]": {"design": "method as in PMID 29874593", "conditions": "cited from earlier work"}, "[4]": {"design": "method as in PMID 29874593", "conditions": "at high uM concentrations; cited from earlier work"}, "[5]": {"system": "DUNE cells", "test": "Immunoblotting in DUNE cells", "format": "cell-based", "conditions": "20uM, 24 hours, immunoblot", "method": "as §2\nFigure S2. DUNE cells were treated with 20uM of indicated compounds for 24 hours. Protein lyses were collected and immunoblotted with Vinculin, SOX2, and HMGA2 antibodies. […]\nFigure S3. DUNE or DUNE(KO) cells were treated with 20uM of indicated compounds for 24 hours. Protein lyses were collected and immunoblotted with Lin28b, SYP, CD44, and CD133 antibodies. Beta-actin was used as the loading control. […]"}}, "data": [{"smiles": "CCc1cc(=O)[nH]c(Nc2cc(Cl)ccc2O)n1", "note": "[Ln7]", "values": [{"measurement": "HMGA2 mRNA level", "setting": "[1]", "value": "strongly inhibited"}, {"measurement": "Let-7d expression level", "setting": "[1]", "value": "approximately six- to eight-fold"}, {"measurement": "SOX2 mRNA level", "setting": "[1]", "value": "strongly inhibited"}]}, {"smiles": "CC(=O)N(C)c1cccc(-c2ccc3nnc(C)n3n2)c1", "note": "[compound 1632, reference compound]", "values": [{"measurement": "Let-7 microRNA levels", "setting": "[2]", "value": "upregulated"}, {"measurement": "HMGA2 mRNA level", "setting": "[1]", "value": "not"}, {"measurement": "Let-7d expression level", "setting": "[1]", "value": "did not show any impacts"}, {"measurement": "SOX2 mRNA level", "setting": "[1]", "value": "not"}]}, {"smiles": "CCOc1cccc2c1N[C@@H](c1ccc(C(=O)O)cc1)[C@H]1CC=C[C@@H]21", "note": "[Li71, reference compound]", "values": [{"measurement": "Let-7 microRNA levels", "setting": "[2]", "value": "upregulated"}, {"measurement": "solubility", "setting": "[3]", "value": "high solubility"}, {"measurement": "HMGA2 mRNA level", "setting": "[1]", "value": "strongly inhibited"}, {"measurement": "Let-7d expression level", "setting": "[1]", "value": "approximately six- to eight-fold"}, {"measurement": "SOX2 mRNA level", "setting": "[1]", "value": "strongly inhibited"}, {"measurement": "cellular toxicity", "setting": "[4]", "value": "low cellular toxicity"}]}, {"smiles": "O=c1[nH]c(Nc2ccccc2O)cs1", "note": "[Ln15]", "values": [{"measurement": "upregulation of Let-7", "setting": "[2]", "value": 10, "unit": "fold"}, {"measurement": "protein expression of SYP", "setting": "[5]", "value": "suppressed"}, {"measurement": "HMGA2 mRNA level", "setting": "[1]", "value": "strongly inhibited"}, {"measurement": "Let-7d expression level", "setting": "[1]", "value": "approximately six- to eight-fold"}, {"measurement": "SOX2 mRNA level", "setting": "[1]", "value": "strongly inhibited"}]}, {"smiles": "O=c1cccc(-c2nc3cc(F)c(O)cc3c(=O)[nH]2)[nH]1", "note": "[Ln115]", "values": [{"measurement": "protein expression of SYP", "setting": "[5]", "value": "suppressed"}, {"measurement": "HMGA2 mRNA level", "setting": "[1]", "value": "strongly inhibited"}, {"measurement": "Let-7d expression level", "setting": "[1]", "value": "approximately six- to eight-fold"}, {"measurement": "SOX2 mRNA level", "setting": "[1]", "value": "strongly inhibited"}]}]}
